Test results: patent publication US10899769B2, “Imidazopiperazinone inhibitors of transcription activating proteins” (Board of Regents, The University of Texas System, priority 2018, dated 2021)

What was measured:
BRD4(49-170) bromodomain = BRD4(49-170) bromodomain (Homo sapiens (Human), UniProt O60885); experiment: BRD4 AlphaScreen Assay; details: binding to biotin-H4(1-21) Ac-K5/8/12/16
Procedure: (§1) Specific binding of the CBP or BRD4 bromodomain to the acetylated peptide derived from the H4 histone substrate (tetra acetylated H4(1-21) Ac-K5/8/12/16) was measured in absence or presence of inhibitors. The GST tagged bromodomains of CBP (1081-1197) and BRD4 (49-170) were obtained from BPS Bioscience and binding to the biotinylated H4(1-21) Ac-K5/8/12/16 (AnaSpec. 64989) was assessed via AlphaScreen technology (Perkin Elmer).
(§2) 5 nM GST-CBP(1081-1197) and 20 nM biotin-H4(1-21) Ac-K5/8/12/16 (AnaSpec. 64989) were incubated with varying concentrations of CBP inhibitors in 15 μL of buffer containing 50 mM HEPES 7.5, […], 1 mM TCEP, and 0.003% Tween-20. After 30 minutes incubation at room temperature, 15 μL of detection buffer (BPS Bio. 33006) containing 7 μg/mL of Glutathione AlphaLisa acceptor beads (Perkin Elmer AL109) and 14 μg/mL of Streptavidin donor beads (Perkin Elmer 676002) was then added to the previous mixture. The reaction was incubated for an additional 2 hours at room temperature, and the AlphaScreen signal was quantified using the Envision Multilabel plate reader. As negative control, GST-CBP(1081-1197) was incubated with the non-acetylated biotin-H4(1-21) peptide(AnaSpec. 62555) and in presence of 0.25% of final DMSO concentration.
(§3) the binding of 2.5 nM of BRD4(49-170) to 10 nM biotin-H4(1-21) Ac-K5/8/12/16 (AnaSpec. 64989) was assessed following the same procedure described for the CBP assay. The standard dose response curves were fitted by Genedata Screener software using the variable-slope model: Signal=Signalnegative control+(SignalDMSO control−Signalnegative control)/(1+(IC50/Dose)^Hill slope).
(§4) Only Signal and Dose in the equation were treated as know values.

[1] = biological target: GST-CBP(1081-1197) bromodomain (Homo sapiens (Human), UniProt Q92793); experiment: CBP AlphaScreen Assay; details: binding to biotin-H4(1-21) Ac-K5/8/12/16
GST-CBP(1081-1197) bromodomain, sequence (Q92793 1081-1197): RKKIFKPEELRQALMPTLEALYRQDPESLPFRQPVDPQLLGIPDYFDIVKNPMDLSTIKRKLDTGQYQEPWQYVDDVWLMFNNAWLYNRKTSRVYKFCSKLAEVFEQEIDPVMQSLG
Procedure: as §1, §2, §3, §4

| IC50 (BRD4(49-170) bromodomain) [µM] | IC50 [1] [µM] | Structure (SMILES) |
| --- | --- | --- |
| 0.132 | 0.001 | CC1C(=O)N(C)Cc2c(-c3cccc4nc(-c5cnn(C)c5)c(C#N)cc34)nc(C3CC3)n21 (single isomer, unassigned) [Example 56b, 5-(3-cyclopropyl-5,7-dimethyl-6-oxo-5,6,7,8-tetrahydroimidazo[1,5-a]pyrazin-1-yl)-2-(1-methyl-1H-pyrazol-4-yl)quinoline-3-carbonitrile] |
| ≥ 25 | 0.647 | Cc1ncc(-c2cc3ccc(F)c(-c4nc(C5CCOCC5)n5c4CN(C)C(=O)C5C)c3cn2)s1 (single isomer, unassigned) [Example 37b, 1-(7-Fluoro-3-(2-methylthiazol-5-yl)isoquinolin-8-yl)-5,7-dimethyl-3-(tetrahydro-2H-pyran-4-yl)-7,8-dihydroimidazo[1,5-a]pyrazin-6(5H)-one] |
| ≥ 25 | 0.49 | CC1C(=O)N(C)Cc2c(-c3cccc4nc(-c5cnn(C)c5)c(C(F)F)cc34)nc(C3(C)CCOCC3)n21 (single isomer, unassigned) [Example 32a, 1-(3-(Difluoromethyl)-2-(1-methyl-1H-pyrazol-4-yl)quinolin-5-yl)-5,7-dimethyl-3-(4-methyltetrahydro-2H-pyran-4-yl)-7,8-dihydroimidazo[1,5-a]pyrazin-6(5H)-one] |
| 0.101 | 0.001 | C[C@@H]1C(=O)N(C)Cc2c(-c3cccc4nc(-c5ccn(C)n5)c(C(F)F)cc34)nc(C3CCOCC3)n21 [Example 89a, (R)-1-(3-(difluoromethyl)-2-(1-methyl-1H-pyrazol-3-yl)quinolin-5-yl)-5,7-dimethyl-3-(tetrahydro-2H-pyran-4-yl)-7,8-dihydroimidazo[1,5-a] pyrazin-6(5H)-one] |
| 0.407 | 0.001 | C[C@@H]1C(=O)N(C)Cc2c(-c3cccc4nc(-c5cnn(C)c5)c(C(F)F)cc34)nc(C3CC3)n21 [Example 110b, (R)-3-cyclopropyl-1-(3 (difluoromethyl)-2-(1-methyl-1H-pyrazol-4-yl)quinolin-5-yl)-5,7-dimethyl-7,8-dihydroimidazo[1,5-a] pyrazin-6(5H)-one] |
| 25 | 0.424 | CC1C(=O)N(C)Cc2c(-c3cccc4nc(-c5cnn(C)c5)c(C#N)cc34)nc(C3CC3)n21 (single isomer, unassigned) [Example 56a, 5-(3-cyclopropyl-5,7-dimethyl-6-oxo-5,6,7,8-tetrahydroimidazo[1,5-a]pyrazin-1-yl)-2-(1-methyl-1H-pyrazol-4-yl)quinoline-3-carbonitrile] |

Further lines, the compound ahead of its results:

| Structure (SMILES) | IC50 (BRD4(49-170) bromodomain) [µM] | IC50 [1] [µM] |
| --- | --- | --- |
| CC1C(=O)N(C)Cc2c(-c3cccc4cc(C5=CCOCC5)ncc34)nc(C3CC3)n21 (stereo not drawn) [Example 55, 3-cyclopropyl-l-(3-(3,6-dihydro-2H-pyran-4-yl)isoquinolin-8-yl)-5,7-dimethyl-7,8-dihydroimidazo[1,5-a] pyrazin-6(5H)-one] | 0.392 | 0.002 |
| CC1C(=O)N(C)Cc2c(-c3ccn4cncc4c3)nc(C3CC3)n21 (stereo not shown) [Example 57, 3-cyclopropyl-1-(imidazo[1,5-a]pyridin-7-yl)-5,7-dimethyl-7,8-dihydroimidazo[1,5-a] pyrazin-6(5H)-one] | 2.61 | 1.07 |
| CC1C(=O)N(C)Cc2c(-c3ccc4cncn4c3)nc(C3CC3)n21 (stereo not shown) [Example 54, 3-cyclopropyl-1-(imidazo[1,5-a]pyridin-6-yl)-5,7-dimethyl-7,8-dihydroimidazo[1,5-a] pyrazin-6(5H)-one] | 2.1 | 0.751 |
| Cc1c(-c2nc3cccc(-c4nc(C5CC5)n5c4CN(C)C(=O)C5C)c3cc2C(F)F)cnn1C (stereo not shown) [Example 61, 3-cyclopropyl-1-(3-(difluoromethyl)-2-(1,5-dimethyl-1H-pyrazol-4-yl)quinolin-5-yl)-5,7-dimethyl-7,8-dihydroimidazo[1,5-a] pyrazin-6(5H)-one] | 0.511 | 0.004 |
| CC1C(=O)N(C)Cc2c(-c3cccc4cc(-c5ccn(C)n5)ncc34)nc(C3CC3)n21 (stereo not drawn) [Example 62, 3-cyclopropyl-5,7-dimethyl-1-(3-(l-methyl-1H-pyrazol-3-yl)isoquinolin-8-yl)-7,8-dihydroimidazo[1,5-a] pyrazin-6(5H)-one] | 0.164 | 0.002 |
| Cc1nn(C)cc1-c1cc2cccc(-c3nc(C4CCOCC4)n4c3CN(C)C(=O)C4C)c2cn1 (stereo not shown) [Example 87, 1-(3-(1,3-dimethyl-1H-pyrazol-4-yl)isoquinolin-8-yl)-5,7-dimethyl-3-(tetrahydro-2H-pyran-4-yl)-7,8-dihydroimidazo[1,5-a] pyrazin-6(5H)-one] | 10.7 | 0.077 |
| Cn1cc(-c2cc3cccc(-c4nc(C5CC5)n5c4CN(CCF)C(=O)C5)c3cn2)cn1 [Example 7, 3-Cyclopropyl-7-(2-fluoroethyl)-1-(3-(1-methyl-1H-pyrazol-4-yl)isoquinolin-8-yl)-7,8-dihydroimidazo[1,5-a]pyrazin-6(5H)-one] | 4.97 | 0.019 |
| CC1C(=O)N(C)Cc2c(-c3cccc4nc(-c5cnn(C)c5)c(C(F)F)cc34)nc(C3CCS(=O)(=O)CC3)n21 (single isomer, unassigned) [Example 29b, 1-(3-(Difluoromethyl)-2-(1-methyl-1H-pyrazol-4-yl)quinolin-5-yl)-3-(1,1-dioxidotetrahydro-2H-thiopyran-4-yl)-5,7-dimethyl-7,8-dihydroimidazo[1,5-a]pyrazin-6(5H)-one] | 0.592 | 0.032 |
| CC1C(=O)N(C)Cc2c(-c3ccc4c(c3)c(-c3cnn(C)c3)nn4C)nc(C3=CCOCC3)n21 (stereo not shown) [Example 41, 3-(3,6-Dihydro-2H-pyran-4-yl)-5,7-dimethyl-1-(1-methyl-3-(1-methyl-1H-pyrazol-4-yl)-1H-indazol-5-yl)-7,8-dihydroimidazo[1,5-a]pyrazin-6(5H)-one] | 1.61 | 0.014 |
| CC1C(=O)N(C)Cc2c(-c3cccc4nc(-c5cnn(C)c5)c(C(F)F)cc34)nc(C3CN(CC(F)(F)F)C3)n21 (stereo not shown) [Example 21, 1-(3-(Difluoromethyl)-2-(1-methyl-1H-pyrazol-4-yl)quinolin-5-yl)-5,7-dimethyl-3-(1-(2,2,2-trifluoroethyl)azetidin-3-yl)-7,8-dihydroimidazo[1,5-a]pyrazin-6(5H)-one] | 6.16 | 0.013 |
| CN1Cc2c(N3CCCc4nc(-c5cnn(C)c5)c(C(F)(F)F)cc43)nc(C3CC3)n2CC1=O [Example 39, 3-Cyclopropyl-7-methyl-1-(6-(1-methyl-1H-pyrazol-4-yl)-7-(trifluoromethyl)-3,4-dihydro-1,5-naphthyridin-1(2H)-yl)-7,8-dihydroimidazo[1,5-a]pyrazin-6(5H)-one] | 25 | 0.185 |
| CC1C(=O)N(C)Cc2c(-c3cccc4nc(C5=CCOCC5)c(C(F)F)cc34)nc(C3CC3)n21 (stereo not shown) [Example 9, 3-Cyclopropyl-1-(3-(difluoromethyl)-2-(3,6-dihydro-2H-pyran-4-yl)quinolin-5-yl)-5,7-dimethyl-7,8-dihydroimidazo[1,5-a]pyrazin-6(5H)-one] | 0.366 | 0.003 |
| CC1C(=O)N(C)Cc2c(-c3cccc4nc(-c5cn(C)cn5)c(C(F)F)cc34)nc(C3CC3)n21 (stereo not shown) [Example 69, 3-cyclopropyl-1-(3-(difluoromethyl)-2-(1-methyl-1H-imidazol-4-yl)quinolin-5-yl)-5,7-dimethyl-7,8-dihydroimidazo[1,5-a] pyrazin-6(5H)-one] | 1.53 | 0.013 |
| Cc1ncn(-c2cc3cccc(-c4nc(C5CC5)n5c4CN(C)C(=O)C5C)c3cn2)n1 (stereo not shown) [Example 71, 3-cyclopropyl-5,7-dimethyl-1-(3-(3-methyl-1H-1,2,4-triazol-1-yl)isoquinolin-8-yl)-7,8-dihydroimidazo[1,5-a] pyrazin-6(5H)-one] | 0.868 | 0.004 |
| CC1C(=O)N(C)Cc2c(-c3cccc4cc(N5CCOCC5)ncc34)nc(C3CCOCC3)n21 (single isomer, unassigned) [Example 16a, 5,7-Dimethyl-1-(3-morpholinoisoquinolin-8-yl)-3-(tetrahydro-2H-pyran-4-yl)-7,8-dihydroimidazo[1,5-a]pyrazin-6(5H)-one] | ≥ 25 | 1.12 |
| CCN1Cc2c(N3CCCc4cc(-c5cnn(C)c5)c(C(F)F)cc43)nc(C3CC3)n2CC1=O [Example 48, 3-cyclopropyl-1-(7-(difluoromethyl)-6-(1-methyl-1H-pyrazol-4-yl)-3,4-dihydroquinolin-1(2H)-yl)-7-ethyl-7,8-dihydroimidazo[1,5-a] pyrazin-6(5H)-one] | 17.6 | 0.018 |
| COCCN1CCC(c2nc(-c3cccc4nc(-c5cnn(C)c5)c(C(F)F)cc34)c3n2C(C)C(=O)N(C)C3)CC1 (stereo not shown) [Example 82, 1-(3-(difluoromethyl)-2-(1-methyl-1H-pyrazol-4-yl)quinolin-5-yl)-3-(1-(2-methoxyethyl)piperidin-4-yl)-5,7-dimethyl-7,8-dihydroimidazo[1,5-a] pyrazin-6(5H)-one] | 12.3 | 0.227 |
